Data reported in publication PMC8986850, “Development and exploration of novel substituted thiosemicarbazones as inhibitors of aldose reductase via in vitro analysis and computational study” (Scientific Reports, 2022).

Columns and labels:
[1] = DPPH radical scavenging activity; settings: 100 µM compound, methanolic DPPH 0.025 mg/mL, 517 nm
Method: DPPH (2,2-diphenyl-1-picrylhydrazyl) was used to explore the free radical quenching ability of 3a-o so as to provide a gauge of their antioxidant potential. The experiment was conducted according to a previously reported protocol with slight modifications. Percent free radical scavenging activities (% FRSA) of 3a-o were determined by spectrophotometric analysis at 517 nm using a homogenous mixture of methanolic DPPH (0.025 mg/mL) and a 100 µM solution of the tested compound, with ascorbic acid used as a positive control (Fig. 3).

ALR1 = target: T1, ALR1 (Bos taurus, UniProt Q3ZCJ2); assay: ALR1 enzyme inhibition assay (enzyme extracted from calf kidneys); type: biochemical, bovine; settings: for IC50: bovine kidney ALR1, substrate sodium-D-glucoronate, mean ± SEM of three measurements
T1 construct: The calf’s kidneys were obtained after slaughtering and dissection; from tissue; host or cells: calf kidneys
Method: Compounds 3a-o were tested against ALR2 to evaluate their inhibitory potential against aldose reductase whereas selectivity was determined via performing ALR1 inhibition assay. For the enzyme inhibition assay, ALR2 and ALR1 were extracted from bovine sources (ALR2 from eyes and ALR1 from kidneys). Moreover, inhibitions studies were also carried out on the expressed ALR2 (human AKR1B1) and inhibition data for ALR2- bovine source and expressed enzyme was compared and analyzed. The protocols for enzyme extraction and expression in the bacterial system are included in the section of “Supporting information”. […] For the purpose of comparison and validation of enzyme inhibition data, these compounds were tested against human AKR1B1 (hAKR1B1) expressed in E. coli BL21 (DE3). We found a similar pattern of enzyme inhibition for the synthesized compounds against extracted enzyme (ALR2) as well as expressed enzyme (hAKR1B1).
(§1) For the determination of enzyme activity of ALR1 and ALR2, 100 µL of reaction mixture was composed of 20 µL of buffer (100 mM sodium phosphate, pH 6.2), 30 µL of enzyme extract, 20 µL of substrate (10 mM), 20 µL of cofactor (0.1 mM of NADPH) and 10 µL of test compound (1 mM)[6],[21]. The reaction mixture without cofactor was incubated at 32°C for 10 min, then the enzymatic reaction was initiated with the addition of NADPH and monitored for 5 minutes. Similar protocols were followed for ALR1 and ALR2, however the substrate was different for each enzyme, with sodium-D-glucoronate and DL-glyceraldehyde used as the substrates for the ALR1 and ALR2 assays, respectively. […] In addition, similar protocols were adopted for human AKR1B1 that was expressed in E. coli BL21 (DE3), though the determined protein concentration was 12 µg/mL for the expressed enzyme. Detailed protocols for the preparation of ALR1, ALR2 and expressed human AKR1B1 can be found in the supporting information.
(§2) The newly synthesized N-substitute thiosemicarbazones (3a-o) were dissolved in 100% DMSO and diluted with deionized water, keeping the DMSO concentration equal to 0.1% in the assay.
The calf’s kidneys were obtained after slaughtering and dissection, dissolved in 3 volumes of sodium phosphate buffer (10mM) which is composed of 2.0 mM EDTA, 2.5mM β-mercaptoethanol, 0.25M solution of sucrose at pH 7.25. First, the homogenisation was carried out then centrifugation of the homogenate was performed at 12000 x g at 0-2^◦C for 30 minutes. The precipitates containing insoluble lipids were discarded and the collected supernatant layer was treated with 40% saturation of ammonium sulphate. This liquid mixture was subjected to centrifugation at 11000 x g at 0-2^◦C for 30 minutes. Now, precipitates were again discarded and supernatant was collected and treated with 50% ammonium sulphate and procedure was repeated in the same manner as in previous step. In the last step, the saturation of ammonium sulphate was increased up to 75% and supernatant was subjected to same parameter of centrifugation. At this final step, precipitates were obtained and supernatant layer was discarded. The obtained material of precipitates was composed of ALR1and redissolved in initial buffer that was used during homogenisation. Finally, material was dialyzed overnight with same buffer system. The dialyzed fractions containing ALR1 were stored at -80^◦C for further use[5].

human AKR1B1 (hAKR1B1) = target: T2, human AKR1B1 (hAKR1B1) (Homo sapiens, UniProt P15121); assay: Inhibition of expressed human AKR1B1 (E. coli BL21 (DE3)); type: biochemical; settings: for IC50: human AKR1B1 expressed in E. coli BL21 (DE3), mean ± SEM of three measurements; for inhibition at 100 µM: human AKR1B1 expressed in E. coli, 100 µM inhibitor, read-out: I (%, 100 µM) (AKR1B1)
T2 construct: made in house; host or cells: E. coli BL21 (DE3)
Method: For the enzyme inhibition assay, ALR2 and ALR1 were extracted from bovine sources (ALR2 from eyes and ALR1 from kidneys). Moreover, inhibitions studies were also carried out on the expressed ALR2 (human AKR1B1) and inhibition data for ALR2- bovine source and expressed enzyme was compared and analyzed. The protocols for enzyme extraction and expression in the bacterial system are included in the section of “Supporting information”. […] For the purpose of comparison and validation of enzyme inhibition data, these compounds were tested against human AKR1B1 (hAKR1B1) expressed in E. coli BL21 (DE3).
as §1, with “The reaction mixture without cofactor was incubated at 32°C for 10 min, then the enzymatic reaction was initiated with the addition of NADPH and monitored for 5 minutes.” left out
as §2
The expression plasmid for aldose reductase (pDONR223_AKR1B1_WT) was gift from Addgene in stable culture. Streaking of this culture has been carried out on LB Agar plate then incubated overnight, after growth of colonies , inoculation was performed in LB medium then incubated this medium in shaking incubator at 37 °C. After 48 hours turbidity was measured when OD=0.6 then some of bacterial growth was prepared as 50% glycerol stock. Others are subjected to plasmid isolation following method Miniprep. Meanwhile E. Coli BL21 De3 cells were made competent then transformation with extracted plasmid (AKR1B1) had been carried out heat shock method. Transformed cell ( E.Coli BL21 DE3+AKR1B1) were grown in 37 °C in shaking incubator for 48 hr. The selection for transformed cells was carried out with the help of antibiotic (spectinomycin 50µg/ml). […] For the expression of aldose reductase , E.coli BL21DE3 were induced with of IPTG(Isopropyl-d-thiogalactopyranoside)[3]. […] The expressed enzyme was stabilized by addition 10 mM Tris–HCl buffer, 0.5 mM EDTA, 5 mM β-marcaptoethanol at pH 8.0 and 20% (v/v) glycerol. Cells were lysed with lysis buffer and then precipitation with ammonium sulfate up to 80% saturation was done . the expressed enzyme was dialyzed overnight against tris buffer. Protein quantification was performed following Bradford protein assay. Aliqoutes were stored at -80 refrigerator.

ALR2 = target: T3, ALR2 (Bos taurus, UniProt P16116); assay: ALR2 enzyme inhibition assay (enzyme extracted from calf lenses); type: biochemical, bovine; settings: for IC50: bovine lens ALR2, substrate DL-glyceraldehyde, mean ± SEM of three measurements; for inhibition at 100 µM: bovine lens ALR2, 100 µM inhibitor, read-out: I (%, 100 µM) (ALR2) (converted)
T3 construct: from tissue; host or cells: calf eye lenses
Method: Compounds 3a-o were tested against ALR2 to evaluate their inhibitory potential against aldose reductase whereas selectivity was determined via performing ALR1 inhibition assay. For the enzyme inhibition assay, ALR2 and ALR1 were extracted from bovine sources (ALR2 from eyes and ALR1 from kidneys). Moreover, inhibitions studies were also carried out on the expressed ALR2 (human AKR1B1) and inhibition data for ALR2- bovine source and expressed enzyme was compared and analyzed. The protocols for enzyme extraction and expression in the bacterial system are included in the section of “Supporting information”. […] For the purpose of comparison and validation of enzyme inhibition data, these compounds were tested against human AKR1B1 (hAKR1B1) expressed in E. coli BL21 (DE3).
as §1, §2
The extraction of ALR2 was carried out from calf lenses via adopting method described in
in (Hayman and Kinoshita 1965) with little modification. The lenses were obtained from slaughterhouse immediately after calf’s slaughtering and stored at -20^◦C until further use. These lense (150-170g) were subjected to homogenization with about three times volume of cold distilled water and then centrifugation was carried out for the homogenate at 10,000 x g for 14 minutes for removal of insoluble lipids particles. Precipitates were discarded and supernatant layer was subjected to 40% saturation of ammonium sulphate and again centrifugation was performed with same parameters for 14 minutes and again precipitates were discarded. […] In the last step, the supernatant was subjected to 75% of saturation with ammonium sulphate to obtain ALR2. Now, the precipitates were collected instead supernatant because precipitated protein was the expected desired ALR2. The precipitated enzyme (ALR2) was redissolved in 50mM solution of sodium chloride and dialyzed for 24 hours against 50mM solution (3.5L) of NaCl. The volume was recorded before and after dialysis, then dialyzed material was treated with liquid nitrogen. The extracted ALR2 was stored in 1mL Eppendorf tube in deep freezer at -80 ^◦C till further enzymatic studies.

T1 sequence (Q3ZCJ2 whole entry): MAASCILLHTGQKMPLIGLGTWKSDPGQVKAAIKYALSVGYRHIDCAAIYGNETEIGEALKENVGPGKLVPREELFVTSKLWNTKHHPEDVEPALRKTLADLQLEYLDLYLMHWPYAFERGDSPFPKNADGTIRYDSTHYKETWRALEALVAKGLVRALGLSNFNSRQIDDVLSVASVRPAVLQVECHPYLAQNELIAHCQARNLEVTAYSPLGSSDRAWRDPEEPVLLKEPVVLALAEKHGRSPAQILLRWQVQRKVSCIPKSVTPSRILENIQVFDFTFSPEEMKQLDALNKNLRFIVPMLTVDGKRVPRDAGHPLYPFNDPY

In the case of `O=C1O[C@H]([C@@H](O)CO)C(O)=C1O` [Ascorbic acid, reference compound], the “% FRSA (percent free radical scavenging activity)” value [1] is reported as 89.88%.

`CC(C)(C)c1cc(C=NNC(=S)Nc2ccccc2)c(O)c(C(C)(C)C)c1` [Compound 3a, 2-(3,5-di-tert-butyl-2-hydroxybenzylidene)-N-phenylhydrazinecarbothioamide] gave an IC50 (ALR1) of 2.83 ± 0.0034 µM, an IC50 (human AKR1B1 (hAKR1B1)) of 3.89 ± 0.0034 µM and an IC50 (ALR2) of 2.99 ± 0.0021 µM. For the same molecule, the “% FRSA (percent free radical scavenging activity)” value [1] was 79.41% and the melting point was 178 to 180 °C.

In the case of `Cc1ccc(NC(=S)NN=Cc2cc(C(C)(C)C)cc(C(C)(C)C)c2O)c(C)c1` [Compound 3b, 2-(3,5-di-tert-butyl-2-hydroxybenzylidene)-N-(2,4-dimethylphenyl)hydrazine carbothioamide], the inhibition at 100 µM (ALR1; bovine kidney ALR1, 100 µM inhibitor, read-out: I (%, 100 µM) (ALR1)) is reported as ≤ 31.6%, the inhibition at 100 µM (human AKR1B1 (hAKR1B1)) is reported as 27.4% and the inhibition at 100 µM (ALR2) is reported as ≤ 44.6%. For the same molecule, the “% FRSA (percent free radical scavenging activity)” value [1] was 84.05% and the melting point was 186 to 188 °C.

`COc1cccc(NC(=S)NN=Cc2cc(C(C)(C)C)cc(C(C)(C)C)c2O)c1` [Compound 3c, 2-(3,5-di-tert-butyl-2-hydroxybenzylidene)-N-(3-methoxyphenyl)hydrazine carbothioamide] showed an IC50 (ALR1) of 4.21 ± 0.0021 µM, an IC50 (human AKR1B1 (hAKR1B1)) of 3.27 ± 0.0035 µM and an IC50 (ALR2) of 4.49 ± 0.0034 µM. The “% FRSA (percent free radical scavenging activity)” value [1] was 85.16% and the melting point was 173 to 175 °C.

In the case of `Cc1ccccc1NC(=S)NN=Cc1cc(C(C)(C)C)cc(C(C)(C)C)c1O` [Compound 3d, 2-(3,5-di-tert-butyl-2-hydroxybenzylidene)-N-(o-tolyl)hydrazinecarbothioamide], the inhibition at 100 µM (human AKR1B1 (hAKR1B1)) is reported as 3.56%, the “% FRSA (percent free radical scavenging activity)” value [1] is reported as 84.58% and the melting point is reported as 182 to 184 °C.

For `CC(C)(C)c1cc(C=NNC(=S)NCc2ccccc2)c(O)c(C(C)(C)C)c1` [Compound 3e, N-benzyl-2-(3,5-di-tert-butyl-2-hydroxybenzylidene)hydrazinecarbothioamide], the inhibition at 100 µM (human AKR1B1 (hAKR1B1)) was 12.3%, the “% FRSA (percent free radical scavenging activity)” value [1] was 83.20% and the melting point was 190 to 192 °C.

For `CC(C)(C)c1cc(C=NNC(=S)Nc2ccc(F)cc2)c(O)c(C(C)(C)C)c1` [Compound 3g, 2-(3,5-di-tert-butyl-2-hydroxybenzylidene)-N-(4-fluorophenyl)hydrazine carbothioamide], the IC50 (human AKR1B1 (hAKR1B1)) was 3.95 ± 0.0038 µM, the IC50 (ALR2) was 2.38 ± 0.0028 µM and the “% FRSA (percent free radical scavenging activity)” value [1] was 85.89%. For the same molecule, the melting point was 176 to 178 °C.

For `CC(C)(C)c1cc(C=NNC(=S)NC2CCCCC2)c(O)c(C(C)(C)C)c1` [Compound 3h, N-cyclohexyl-2-(3,5-di-tert-butyl-2-hydroxybenzylidene)hydrazinecarbothioamide], the inhibition at 100 µM (human AKR1B1 (hAKR1B1)) was 38%, the inhibition at 100 µM (ALR2) was ≤ 39.1% and the “% FRSA (percent free radical scavenging activity)” value [1] was 83.54%. It also gave a melting point of 168 to 170 °C.

In the case of `CC(C)(C)c1cc(C=NNC(=S)Nc2ccc(Br)cc2)c(O)c(C(C)(C)C)c1` [Compound 3i, N-(4-bromophenyl)-2-(3,5-di-tert-butyl-2-hydroxybenzylidene)hydrazine carbothioamide], the inhibition at 100 µM (human AKR1B1 (hAKR1B1)) is reported as 22.3%, the inhibition at 100 µM (ALR2) is reported as ≤ 39.1% and the “% FRSA (percent free radical scavenging activity)” value [1] is reported as 81.80%. For the same molecule, the melting point was 184 to 186 °C.

Work on `CC(C)(C)c1cc(C=NNC(=S)Nc2ccc(Cl)cc2)c(O)c(C(C)(C)C)c1` [Compound 3l, N-(4-chlorophenyl)-2-(3,5-di-tert-butyl-2-hydroxybenzylidene)hydrazine carbothioamide] yielded an IC50 (human AKR1B1 (hAKR1B1)) of 1.65 ± 0.004 µM, an inhibition at 100 µM (ALR2) of 81.5% and an IC50 (ALR2) of 1.46 ± 0.005 µM. The “% FRSA (percent free radical scavenging activity)” value [1] was 61.55% and the melting point was 188 to 190 °C.

For `CC(C)c1ccc(NC(=S)NN=Cc2cc(C(C)(C)C)cc(C(C)(C)C)c2O)cc1` [Compound 3n, 2-(3,5-di-tert-butyl-2-hydroxybenzylidene)-N-(4-isopropylphenyl)hydrazine carbothioamide], the inhibition at 100 µM (human AKR1B1 (hAKR1B1)) was 22.6%, the inhibition at 100 µM (ALR2) was ≤ 39.1% and the “% FRSA (percent free radical scavenging activity)” value [1] was 7.91%. It also gave a melting point of 189 to 191 °C.

`CCCC(CCC)C(=O)O` [Valproic acid, reference compound] showed an IC50 (ALR1) of 49.31 ± 0.005 µM.
